In ChEMBL document CHEMBL5674860, “Optimized Dual-Glo Assay to identify co-culture-induced drug vulnerabilities in 3D CRC models” (2024):

Legend:
Assay type in all cases: functional, Homo sapiens
Set-up in all cases: dose or concentration left out as unconfirmed
[1] = tested on: Colon cancer organoid; assay: Optimized Dual-Glo assay to identify co-culture induced drug vulnerabilities using donated chemical probes and chemogenomics kinase set in O06 CRC organoid and F06 CAF mono and co-culture. […] Cell viability is reported both mono and co-culture models.
[2] = tested on: Colon cancer organoid; assay: Optimized Dual-Glo assay to identify co-culture induced drug vulnerabilities using donated chemical probes and chemogenomics kinase set in O14 CRC organoid and F14 CAF mono and co-culture. […] Cell viability is reported both mono and co-culture models.
[3] = tested on: Colon cancer organoid; assay: Optimized Dual-Glo assay to identify co-culture induced drug vulnerabilities using donated chemical probes and chemogenomics kinase set in O20 CRC organoid and F20 CAF mono and co-culture. […] Cell viability is reported both mono and co-culture models.
[4] = Culture type Co-Culture, Transduced with Lucferase2-P2A-EGFP lentivirus
[5] = Culture type Co-Culture, Transduced with Renilla-dsRed lentivirus
[6] = Culture type Mono-Culture, Transduced with Lucferase2-P2A-EGFP lentivirus
[7] = Culture type Mono-Culture, Transduced with Renilla-dsRed lentivirus

In the case of `CCC(=O)N1CCN(c2ccc(-n3c(=O)ccc4cnc5ccc(-c6cnc7ccccc7c6)cc5c43)cc2C(F)(F)F)CC1` [TORIN1], the “Cell Viability” value [1, 4] is reported as 4.705%, the “Cell Viability” value [1, 5] is reported as 40.1911% and the “Cell Viability” value [1, 6] is reported as 4.406%. The “Cell Viability” value [1, 7] was 17.8443%, the “Cell Viability” value [2, 4] was 6.678% and the “Cell Viability” value [2, 5] was 21.6908%. For the same compound, the “Cell Viability” value [2, 6] was 9.433%, the “Cell Viability” value [2, 7] was 15.03% and the “Cell Viability” value [3, 4] was 7.384%. The “Cell Viability” value [3, 5] was 44.8651%, the “Cell Viability” value [3, 6] was 4.069% and the “Cell Viability” value [3, 7] was 24.9993%.

`Cc1cnc(-c2cc(Cl)ccc2F)cc1-n1c(=O)n(CC(N)=O)c2cnccc21` [TP-008] was tested, and the “Cell Viability” value [1, 4] was 13.7504%, the “Cell Viability” value [1, 5] was 213.932% and the “Cell Viability” value [1, 6] was 47.0575%. The “Cell Viability” value [1, 7] was 82.299%, the “Cell Viability” value [2, 4] was 97.8203% and the “Cell Viability” value [2, 5] was 116.603%. For the same compound, the “Cell Viability” value [2, 6] was 124.72%, the “Cell Viability” value [2, 7] was 98.4627% and the “Cell Viability” value [3, 4] was 64.1613%. For the same compound, the “Cell Viability” value [3, 5] was 114.054%, the “Cell Viability” value [3, 6] was 79.9392% and the “Cell Viability” value [3, 7] was 106.384%.

With `Cn1nc(C(F)(F)F)cc1-c1cnc(N2CCc3cc(S(=O)(=O)Nc4c(F)cc(Cl)cc4F)cc(N4CCCC4=O)c32)nc1` [TP-020] the “Cell Viability” value [1, 4] was 112.159%, the “Cell Viability” value [1, 5] was 131.656% and the “Cell Viability” value [1, 6] was 120.125%. The “Cell Viability” value [1, 7] was 102.548%, the “Cell Viability” value [2, 4] was 84.372% and the “Cell Viability” value [2, 5] was 107.562%. The “Cell Viability” value [2, 6] was 84.9301%, the “Cell Viability” value [2, 7] was 79.7114% and the “Cell Viability” value [3, 4] was 86.7802%. For the same compound, the “Cell Viability” value [3, 5] was 95.2287%, the “Cell Viability” value [3, 6] was 142.794% and the “Cell Viability” value [3, 7] was 105.743%.

With `Cc1cc(-n2nc(Cc3cc(F)cc(C(F)(F)F)c3)nc2C)ccc1C(N)=O` [TP-024] the “Cell Viability” value [1, 4] was 141.247%, the “Cell Viability” value [1, 5] was 165.614% and the “Cell Viability” value [1, 6] was 109.141%. The “Cell Viability” value [1, 7] was 106.563%, the “Cell Viability” value [2, 4] was 111.425% and the “Cell Viability” value [2, 5] was 96.0369%. The “Cell Viability” value [2, 6] was 116.033%, the “Cell Viability” value [2, 7] was 105.901% and the “Cell Viability” value [3, 4] was 120.055%. For the same compound, the “Cell Viability” value [3, 5] was 118.791%, the “Cell Viability” value [3, 6] was 103.637% and the “Cell Viability” value [3, 7] was 122.989%.

With `CC1CCN(c2ccnc(NCc3cn(C)cn3)n2)CC1` [TP-040] the “Cell Viability” value [1, 4] was 72.882%, the “Cell Viability” value [1, 5] was 83.2209% and the “Cell Viability” value [1, 6] was 105.865%. For the same compound, the “Cell Viability” value [1, 7] was 110.509%, the “Cell Viability” value [2, 4] was 87.8979% and the “Cell Viability” value [2, 5] was 100.433%. The “Cell Viability” value [2, 6] was 106.891%, the “Cell Viability” value [2, 7] was 94.952% and the “Cell Viability” value [3, 4] was 75.5826%. The “Cell Viability” value [3, 5] was 95.0735%, the “Cell Viability” value [3, 6] was 105.645% and the “Cell Viability” value [3, 7] was 103.982%.

With `CN1CCN(c2ccnc(NCCc3ccccc3)n2)CC1` [TP-040n] the “Cell Viability” value [1, 4] was 79.4477%, the “Cell Viability” value [1, 5] was 81.2059% and the “Cell Viability” value [1, 6] was 106.155%. The “Cell Viability” value [1, 7] was 134.56%, the “Cell Viability” value [2, 4] was 93.1561% and the “Cell Viability” value [2, 5] was 99.6193%. For the same compound, the “Cell Viability” value [2, 6] was 147.697%, the “Cell Viability” value [2, 7] was 101.671% and the “Cell Viability” value [3, 4] was 67.1911%. For the same compound, the “Cell Viability” value [3, 5] was 97.5889%, the “Cell Viability” value [3, 6] was 115.175% and the “Cell Viability” value [3, 7] was 123.14%.

In the case of `CC(=O)Nc1cccc(-n2c(=O)n(C3CC3)c(=O)c3c(Nc4ccc(I)cc4F)n(C)c(=O)c(C)c32)c1` [TRAMETINIB], the “Cell Viability” value [1, 4] is reported as 4.434%, the “Cell Viability” value [1, 5] is reported as 57.2708% and the “Cell Viability” value [1, 6] is reported as 3.321%. For the same compound, the “Cell Viability” value [1, 7] was 25.6485%, the “Cell Viability” value [2, 4] was 1.363% and the “Cell Viability” value [2, 5] was 9.093%. For the same compound, the “Cell Viability” value [2, 6] was 1.0764%, the “Cell Viability” value [2, 7] was 6.441% and the “Cell Viability” value [3, 4] was 2.051%. For the same compound, the “Cell Viability” value [3, 5] was 46.1337%, the “Cell Viability” value [3, 6] was 3.859% and the “Cell Viability” value [3, 7] was 28.7914%.

For `Cc1ccc2[nH]c(CNCCCc3ccncc3)cc(=O)c2c1` [UCSF924NC], the “Cell Viability” value [1, 4] was 92.2965%, the “Cell Viability” value [1, 5] was 82.507% and the “Cell Viability” value [1, 6] was 94.1046%. For the same compound, the “Cell Viability” value [1, 7] was 89.0396%, the “Cell Viability” value [2, 4] was 108.907% and the “Cell Viability” value [2, 5] was 109.825%. The “Cell Viability” value [2, 6] was 95.9143%, the “Cell Viability” value [2, 7] was 99.591% and the “Cell Viability” value [3, 4] was 121.67%. For the same compound, the “Cell Viability” value [3, 5] was 109.302%, the “Cell Viability” value [3, 6] was 107.027% and the “Cell Viability” value [3, 7] was 101.655%.

`Cc1ccc2nc(CNCCCOc3ccccc3)cc(O)c2c1` [UCSF924] was tested, and the “Cell Viability” value [1, 4] was 107.729%, the “Cell Viability” value [1, 5] was 156.395% and the “Cell Viability” value [1, 6] was 110.04%. For the same compound, the “Cell Viability” value [1, 7] was 105.774%, the “Cell Viability” value [2, 4] was 83.703% and the “Cell Viability” value [2, 5] was 116.782%. For the same compound, the “Cell Viability” value [2, 6] was 86.6693%, the “Cell Viability” value [2, 7] was 107.391% and the “Cell Viability” value [3, 4] was 114.798%. For the same compound, the “Cell Viability” value [3, 5] was 125.381%, the “Cell Viability” value [3, 6] was 97.5529% and the “Cell Viability” value [3, 7] was 90.0539%.

In the case of `CC(C)Oc1ccc(-c2nn([C@@H](C)c3oc4ccc(F)cc4c(=O)c3-c3cccc(F)c3)c3ncnc(N)c23)cc1F` [UMBRALISIB], the “Cell Viability” value [1, 4] is reported as 96.678%, the “Cell Viability” value [1, 5] is reported as 112.425% and the “Cell Viability” value [1, 6] is reported as 122.966%. The “Cell Viability” value [1, 7] was 119.327%, the “Cell Viability” value [2, 4] was 152.127% and the “Cell Viability” value [2, 5] was 105.235%. For the same compound, the “Cell Viability” value [2, 6] was 156.597%, the “Cell Viability” value [2, 7] was 100.314% and the “Cell Viability” value [3, 4] was 102.839%. For the same compound, the “Cell Viability” value [3, 5] was 87.858%, the “Cell Viability” value [3, 6] was 157.324% and the “Cell Viability” value [3, 7] was 122.853%.

`CC[C@@H]1CN(C(=O)NCC(F)(F)F)C[C@@H]1c1cnc2cnc3[nH]ccc3n12` [UPADACITINIB] was tested, and the “Cell Viability” value [1, 4] was 104.182%, the “Cell Viability” value [1, 5] was 86.3482% and the “Cell Viability” value [1, 6] was 126.811%. For the same compound, the “Cell Viability” value [1, 7] was 90.1732%, the “Cell Viability” value [2, 4] was 168.996% and the “Cell Viability” value [2, 5] was 89.117%. For the same compound, the “Cell Viability” value [2, 6] was 123.387%, the “Cell Viability” value [2, 7] was 83.332% and the “Cell Viability” value [3, 4] was 123.754%. For the same compound, the “Cell Viability” value [3, 5] was 83.5298%, the “Cell Viability” value [3, 6] was 89.3672% and the “Cell Viability” value [3, 7] was 88.6624%.

With `CNC(=O)c1ccccc1Nc1cc(Nc2ccc(N3CCOCC3)cc2OC)ncc1C(F)(F)F` [VS-4718] the “Cell Viability” value [1, 4] was 52.8737%, the “Cell Viability” value [1, 5] was 57.2971% and the “Cell Viability” value [1, 6] was 31.5838%. The “Cell Viability” value [1, 7] was 48.5863%, the “Cell Viability” value [2, 4] was 33.8151% and the “Cell Viability” value [2, 5] was 68.2368%. For the same compound, the “Cell Viability” value [2, 6] was 15.2403%, the “Cell Viability” value [2, 7] was 46.526% and the “Cell Viability” value [3, 4] was 13.8337%. For the same compound, the “Cell Viability” value [3, 5] was 72.4438%, the “Cell Viability” value [3, 6] was 12.23% and the “Cell Viability” value [3, 7] was 46.798%.

In the case of `O=C(NNS(=O)(=O)c1ccccc1F)c1cc(F)cc(-c2ccccn2)c1` [WM-1119], the “Cell Viability” value [1, 4] is reported as 97.0333%, the “Cell Viability” value [1, 5] is reported as 108.11% and the “Cell Viability” value [1, 6] is reported as 61.3742%. The “Cell Viability” value [1, 7] was 91.757%, the “Cell Viability” value [2, 4] was 33.671% and the “Cell Viability” value [2, 5] was 171.323%. For the same compound, the “Cell Viability” value [2, 6] was 39.6176%, the “Cell Viability” value [2, 7] was 103.912% and the “Cell Viability” value [3, 4] was 68.3772%. For the same compound, the “Cell Viability” value [3, 5] was 152.012%, the “Cell Viability” value [3, 6] was 102.739% and the “Cell Viability” value [3, 7] was 96.1932%.

`O=C(NNS(=O)(=O)c1ccccc1)c1cc(-c2ccnnc2)ccc1F` [WM-2474] was tested, and the “Cell Viability” value [1, 4] was 92.1572%, the “Cell Viability” value [1, 5] was 93.3483% and the “Cell Viability” value [1, 6] was 72.4696%. For the same compound, the “Cell Viability” value [1, 7] was 112.209%, the “Cell Viability” value [2, 4] was 77.1469% and the “Cell Viability” value [2, 5] was 98.8333%. The “Cell Viability” value [2, 6] was 101.234%, the “Cell Viability” value [2, 7] was 91.9977% and the “Cell Viability” value [3, 4] was 104.784%. For the same compound, the “Cell Viability” value [3, 5] was 126.08%, the “Cell Viability” value [3, 6] was 94.4259% and the “Cell Viability” value [3, 7] was 109.751%.
